Measurements as given in US4740502A, “Semisynthetic erythromycin antibiotics” (Abbott Laboratories, priority 1986, dated 1988).
≈ marks a conversion by molar mass, not a printed value.

Columns and labels:
[1] = tested on: stomach, duodenum and jejunum; experiment: Gastrointestinal motility (stimulating activity) in a dog model, strain gauges
Experimental: Contractions in the gut were recorded with surgically implanted strain gauges. The contractile scores were determined according to the method of Jacoby, et al., as described in "Gastrointestinal Actions of Metoclopramide," Gastroenterology, Vol. 52, No. 4 (1967), pp. 676-684 by giving a numerical score to the height of each recorded contraction in the one hour period after administration of the test compound. […] Ratios were calculated for the stomach, duodenum and jejunum, and a final arithmetic mean index was calculated and reported in Table I.

E. coli H560 = experiment: Agar dilution MIC, E. coli H560; conditions: Escherichia coli, H560, 22 h
Strep. pyogenes 930 = experiment: Agar dilution MIC, Strep. pyogenes 930; conditions: Streptococcus pyogenes, 930, 22 h
Staph. epidermidis 3519 = experiment: Agar dilution MIC, Staph. epidermidis 3519; conditions: Staphylococcus epidermidis, 3519, 22 h
Strep. faecium ATCC 8043 = experiment: Agar dilution MIC, Strep. faecium ATCC 8043; conditions: Enterococcus faecium, ATCC8043, 22 h
Acinetobacter SP CMX 669 = experiment: Agar dilution MIC, Acinetobacter SP CMX 669; conditions: SPCMX669, 22 h
[2] = tested on: Ent. aerogenes ATCC 10348; experiment: Agar dilution MIC, Ent. aerogenes ATCC 10348; conditions: Klebsiella aerogenes, ATCC10348, 22 h
[3] = tested on: Pseudomonas aeruginosa 5007; experiment: Agar dilution MIC, Pseudomonas aeruginosa 5007; conditions: Pseudomonas aeruginosa, 5007, 22 h
[4] = tested on: Providencia stuartii CMX 640; experiment: Agar dilution MIC, Providencia stuartii CMX 640; conditions: CMX640, 22 h
[5] = tested on: Pseudomonas aeruginosa K799/WT; experiment: Agar dilution MIC, Pseudomonas aeruginosa K799/WT; conditions: 22 h
[6] = tested on: Pseudomonas aeruginosa K799/61; experiment: Agar dilution MIC, Pseudomonas aeruginosa K799/61; conditions: K799/61, 22 h
E. coli SS = experiment: Agar dilution MIC, E. coli SS; conditions: Escherichia coli, 22 h
E. coli JUHL = experiment: Agar dilution MIC, E. coli JUHL; conditions: Escherichia coli, 22 h
E. coli DC-2 = experiment: Agar dilution MIC, E. coli DC-2; conditions: Escherichia coli, DC2, 22 h
E. coli KNK 437 = experiment: Agar dilution MIC, E. coli KNK 437; conditions: Escherichia coli, KNK437, 22 h
Strep. bovis A5169 = experiment: Agar dilution MIC, Strep. bovis A5169; conditions: Streptococcus equinus, A5169, 22 h
Staph. aureus A5177 = experiment: Agar dilution MIC, Staph. aureus A5177; conditions: Staphylococcus aureus, A5177, 22 h
Strep. pyogenes EES61 = experiment: Agar dilution MIC, Strep. pyogenes EES61; conditions: Streptococcus pyogenes, EES61, 22 h
Staph. aureus CMX 686B = experiment: Agar dilution MIC, Staph. aureus CMX 686B; conditions: Staphylococcus aureus, CMX686B, 22 h
Micrococcus luteus 9341 = experiment: Agar dilution MIC, Micrococcus luteus 9341; conditions: Micrococcus luteus, 9341, 22 h
Micrococcus luteus 4698 = experiment: Agar dilution MIC, Micrococcus luteus 4698; conditions: Micrococcus luteus, 4698, 22 h
Staph. aureus ATCC 6538P = experiment: Agar dilution MIC, Staph. aureus ATCC 6538P; conditions: Staphylococcus aureus, ATCC6538P, 22 h
Pseudomonas cepacia 2961 = experiment: Agar dilution MIC, Pseudomonas cepacia 2961; conditions: Burkholderia cepacia, 2961, 22 h
[7] = tested on: Strep. agalactiae CMX 508; experiment: Agar dilution MIC, Strep. agalactiae CMX 508; conditions: Streptococcus agalactiae, CMX508, 22 h
[8] = tested on: Klebsiella pneumoniae 8045; experiment: Agar dilution MIC, Klebsiella pneumoniae 8045; conditions: Klebsiella pneumoniae, 8045, 22 h
[9] = tested on: Staph. epidermidis 3519 RARI; experiment: Agar dilution MIC, Staph. epidermidis 3519 RARI; conditions: Staphylococcus epidermidis, 22 h
[10] = tested on: Pseudomonas aeruginosa BMH10; experiment: Agar dilution MIC, Pseudomonas aeruginosa BMH10; conditions: BMH10, 22 h
[11] = 4 mg/kg intravenously, one hour period, mean of stomach, duodenum and jejunum ratios to erythromycin A lactobionate

With `CC[C@H]1OC(=O)[C@H](C)[C@@H](O[C@H]2C[C@@](C)(OC)[C@@H](O)[C@H](C)O2)[C@H](C)[C@@H](O[C@@H]2O[C@H](C)C[C@H](N(C)C)[C@H]2O)[C@](C)(O)C[C@@H](C)C(=O)[C@H](C)[C@@H](O)[C@H]1C` [erythromycin B lactobionate] the “stimulation of the gastrointestinal tissues” value (from here on “stimulation”) ([1]; in vivo, iv, 4 mg/kg) was “pronounced stimulation of the stomach, duodenum, jejunum and ileum”.

With `CC[C@H]1OC(=O)[C@H](C)[C@@H](O[C@H]2C[C@@](C)(OC)[C@@H](O)[C@H](C)O2)[C@H](C)[C@@H](O[C@@H]2O[C@H](C)C[C@H](N(C)C)[C@H]2O)[C@](C)(OC)C[C@@H](C)C(=O)[C@H](C)[C@@H](O)[C@]1(C)O` [6-O--Me--Ery A, 6-O-methyl erythromycin A] the “Gastrointestinal Motility Index” value ([1]; in vivo, iv, 4 mg/kg) was 0.37 and the “stimulation” value ([1]; in vivo, iv, 4 mg/kg) was “less of a gastrointestinal response”.

With `CC[C@H]1OC(=O)[C@H](C)[C@@H](O[C@H]2C[C@@](C)(OC)[C@@H](O)[C@H](C)O2)[C@H](C)[C@@H](O[C@@H]2O[C@H](C)C[C@H](N(C)C)[C@H]2O)[C@](C)(O)C[C@@H](C)C(=O)[C@H](C)[C@@H](O)[C@]1(C)O` [Erythromycin A] the MIC (E. coli H560) was 6.2 µg/mL (≈ 8.45 µM), the MIC (Strep. pyogenes 930) was > 100 µg/mL and the MIC (Staph. epidermidis 3519) was 0.1 µg/mL (≈ 0.136 µM). The MIC (Strep. faecium ATCC 8043) was 0.05 µg/mL (≈ 0.0681 µM), the MIC (Acinetobacter SP CMX 669) was 3.1 µg/mL (≈ 4.22 µM) and the MIC [2] was 50 µg/mL (≈ 68.1 µM). For the same compound, the MIC [3] was > 100 µg/mL, the MIC [4] was > 100 µg/mL and the MIC [5] was 50 µg/mL (≈ 68.1 µM). It also gave an MIC [6] of 1.56 µg/mL (≈ 2.13 µM).

In the case of `CC[C@H]1OC(=O)[C@H](C)[C@@H](O[C@H]2C[C@@](C)(OC)[C@@H](O)[C@H](C)O2)[C@H](C)[C@@H](O[C@@H]2O[C@H](C)C[C@H](N(C)C)[C@H]2O)[C@](C)(O)C[C@@H](C)C(=O)[C@H](C)[C@@H](O)[C@]1(C)O` [erythromycin A lactobionate], the “stimulation” value ([1]; in vivo, iv, 4 mg/kg) is reported as “pronounced stimulation of the stomach, duodenum, jejunum and ileum”.

For `CC[C@H]1OC(=O)[C@H](C)[C@@H](O[C@H]2C[C@@](C)(OC)[C@@H](OC(N)=O)[C@H](C)O2)[C@H](C)[C@@H](O[C@@H]2O[C@H](C)C[C@H](N(C)C)[C@H]2O)[C@](C)(O)C[C@@H](C)C(=O)[C@H](C)[C@@H](O)[C@]1(C)O` [Example 4, Erythromycin A-4"-carbamate], the “Gastrointestinal Motility Index” value [1, 11] was 0.11.

With `CC[C@H]1OC(=O)[C@H](C)[C@@H](O[C@H]2C[C@@](C)(OC)[C@@H](OC(N)=O)[C@H](C)O2)[C@H](C)[C@@H](O[C@@H]2O[C@H](C)C[C@H](N(C)C)[C@H]2O)[C@](C)(OC)C[C@@H](C)C(=O)[C@H](C)[C@@H](O)[C@]1(C)O` [Example 1, 6-O-methyl-erythromycin A-4"-carbamate] the “Gastrointestinal Motility Index” value [1, 11] was 0.03, the MIC (E. coli SS) was 0.2 µg/mL (≈ 0.253 µM) and the MIC (E. coli JUHL) was 12.5 µg/mL (≈ 15.8 µM). For the same compound, the MIC (E. coli DC-2) was 50 µg/mL (≈ 63.2 µM), the MIC (E. coli H560) was 6.2 µg/mL (≈ 7.84 µM) and the MIC (E. coli KNK 437) was 25 µg/mL (≈ 31.6 µM). The MIC (Strep. bovis A5169) was 0.02 µg/mL (≈ 0.0253 µM), the MIC (Staph. aureus A5177) was 0.39 µg/mL (≈ 0.493 µM) and the MIC (Strep. pyogenes 930) was > 100 µg/mL. It also gave an MIC (Strep. pyogenes EES61) of 0.01 µg/mL (≈ 0.0126 µM), an MIC (Staph. aureus CMX 686B) of 0.05 µg/mL (≈ 0.0632 µM) and an MIC (Staph. epidermidis 3519) of 0.05 µg/mL (≈ 0.0632 µM). The MIC (Micrococcus luteus 9341) was 0.02 µg/mL (≈ 0.0253 µM), the MIC (Micrococcus luteus 4698) was 0.39 µg/mL (≈ 0.493 µM) and the MIC (Staph. aureus ATCC 6538P) was 0.02 µg/mL (≈ 0.0253 µM). The MIC (Strep. faecium ATCC 8043) was 0.05 µg/mL (≈ 0.0632 µM), the MIC (Pseudomonas cepacia 2961) was 50 µg/mL (≈ 63.2 µM) and the MIC (Acinetobacter SP CMX 669) was 6.2 µg/mL (≈ 7.84 µM). It also gave an MIC [7] of 0.02 µg/mL (≈ 0.0253 µM), an MIC [2] of 25 µg/mL (≈ 31.6 µM) and an MIC [8] of 50 µg/mL (≈ 63.2 µM). For the same compound, the MIC [3] was 50 µg/mL (≈ 63.2 µM), the MIC [9] was 0.1 µg/mL (≈ 0.126 µM) and the MIC [4] was 100 µg/mL (≈ 126 µM). It also gave an MIC [10] of 50 µg/mL (≈ 63.2 µM), an MIC [5] of 50 µg/mL (≈ 63.2 µM) and an MIC [6] of 1.56 µg/mL (≈ 1.97 µM).

For `CC[C@H]1OC(=O)[C@H](C)[C@@H](O[C@H]2C[C@@](C)(OC)[C@@H](O)[C@H](C)O2)[C@H](C)[C@@H](O[C@@H]2O[C@H](C)C[C@H](N(C)C)[C@H]2O)[C@](C)(O)C[C@@H](C)C(=O)[C@H](C)[C@@H](O)[C@H]1C` [Ery B, erythromycin B], the “Gastrointestinal Motility Index” value ([1]; in vivo, iv, 4 mg/kg) was 2.47.

In the case of `CC[C@H]1OC(=O)[C@H](C)[C@@H](O[C@H]2C[C@@](C)(OC)[C@@H](OC(N)=O)[C@H](C)O2)[C@H](C)[C@@H](O[C@@H]2O[C@H](C)C[C@H](N(C)C)[C@H]2O)[C@](C)(O)C[C@@H](C)C(=O)[C@H](C)[C@@H](O)[C@H]1C` [Example 2, Erythromycin B-4"-carbamate], the “Gastrointestinal Motility Index” value [1, 11] is reported as 0.17.
